Entries after “also recorded” stand apart in the source; their conditions may differ. Read-outs that look alike come from different tables or passages of the source.
Experiments:
GHB uptake in KNRK cells = test: Inhibition of [3H]GHB uptake in KNRK cells; type: cell-based; conditions: rat KNRK cells
MCT2 = conditions: expressed in Xenopus laevis oocytes; cited from earlier work
MCT4 = conditions: expressed in Xenopus laevis oocytes; cited from earlier work
[1] = Pharmacokinetics of AR-C155858 in rats following intravenous administration; conditions: 0.1, 1, and 5 mg/kg i.v. bolus
[2] = rats, mean (SD), cited from earlier work
[3] = system: GHB-induced respiratory depression; conditions: rats, mean (SD), cited from earlier work
[4] = GHB blood-brain partitioning at steady state; conditions: rats; GHB 400 mg/kg i.v. bolus + 208 mg/kg/h i.v. infusion alone; 4 h; mean ± SD
[5] = Oral GHB toxicokinetics with and without AR-C155858
[6] = rats, cited from earlier work
[7] = GHB 1500 mg/kg i.v. bolus alone
[8] = male, Sprague-Dawley, rat, plasma, po, 1500 mg/kg
[9] = rats, GHB 1500 mg/kg oral gavage alone, mean (SD)

## Cc1n[nH]c(C)c1Cc1sc2c(c1C(=O)N1C[C@H](O)CO1)c(=O)n(C)c(=O)n2CC(C)C [AR-C155858, 6-[(3,5-Dimethyl-1H-pyrazol-4-yl)methyl]-5-[[(4S)-4-hydroxy-2-isoxazolidinyl]carbonyl]-3-methyl-1-(2-methylpropyl)thieno[2,3-d]pyrimidine-2,4(1H,3H)-dione]
GHB uptake in KNRK cells; 100 nM AR-C155858, pre-incubation 0-60 min
  pre-incubation time giving maximal inhibition of GHB uptake: 30 min
GHB uptake in KNRK cells; 30 min pre-incubation
  concentration giving maximal inhibition of GHB uptake: 100 nM
GHB uptake in KNRK cells; 30 min pre-incubation with 100 nM, washed 3 times
  reversibility of inhibition of GHB uptake after washing the cells: not to be rapidly reversible
GHB uptake in KNRK cells; linear trend in inhibition up to 30 nM, 30 min pre-incubation
  inhibition of GHB uptake: 70%
MCT2
  inhibition of MCT2: potently inhibited; also recorded: can also inhibit
MCT4
  inhibition of MCT4: no inhibition; also recorded: does not inhibit
[1]
  AR-C155858 plasma concentration-time profile: biexponential decline and dose-proportional pharmacokinetics

## O=C(O)CCCO [GHB, γ-hydroxybutyric acid]
[2]; GHB 200 mg/kg i.v. bolus alone
  GHB AUC: 26.2 (0.90) mg.min/ml
  GHB CLR (renal clearance): 0.44 (0.20) ml/min/kg
  GHB CLT (total clearance): 7.60 (0.29) ml/min/kg
  GHB urinary recovery: 5.90 (2.86) %
[2]; GHB 600 mg/kg i.v. bolus alone
  GHB AUC: 102 (12.4) mg.min/ml
  GHB CLR (renal clearance): 1.68 (0.75) ml/min/kg
  GHB urinary recovery: 27.3 (9.77) %
[2]; [7]
  GHB AUC: 288 (39.8) mg.min/ml
  GHB CLT (total clearance): 5.16 (0.70) ml/min/kg
  GHB urinary recovery: 61.1 (5.02) %
[3]; GHB 200 mg/kg i.v. bolus alone
  AUEC, area under the effect curve for breathing frequency: 2243 (1508) breaths
  Emax, maximum effect on breathing frequency: 51.9 (8.51) breaths/ min
  Td, duration of effect on breathing frequency: 113 (60.6) min
[3]; GHB 600 mg/kg i.v. bolus alone
  AUEC, area under the effect curve for breathing frequency: 7987 (1228) breaths
  Emax, maximum effect on breathing frequency: 29.5 (6.94) breaths/ min
  Td, duration of effect on breathing frequency: 153 (12.5) min
[3]; [7]
  AUEC, area under the effect curve for breathing frequency: 12505 (1995) breaths
  Emax, maximum effect on breathing frequency: 15.6 (7.05) breaths/ min
  Td, duration of effect on breathing frequency: 281 (72.8) min
[4]
  Cbrain, brain GHB concentration at steady-state: 0.22 ± 0.03 mg/g
  Cplasma, plasma GHB concentration at steady-state: 0.87 ± 0.05 mg/mL
[5]; [8]
  CL/F: 6.52 mL/min/kg
  Cmax: 659 µg/mL
[5]; male, Sprague-Dawley, rat, urine and plasma, po, 1500 mg/kg
  CL renal: 1.82 mL/min/kg
[5]; [9]
  GHB AUC: 233 (30.0) mg.min/ml
  GHB urinary excretion: 28.2 (10.1) %

## C[C@H](O)C(=O)O [L-lactate]
[6]; higher doses, plasma steady state L-lactate concentrations ≈ 4–5 mM
  effect on GHB extracellular fluid concentrations in the frontal cortex: decreased
[6]; lower doses, plasma steady state L-lactate concentrations ≈ 1–2 mM
  effect on GHB extracellular fluid concentrations in the frontal cortex: no significant effect

From paper PMC4425608 (Pharmaceutical research, 2014)
